Results taken from US20140187786A1, “1,3,4-TRISUBSTITUTED BENZENES” (EnVivo Pharmaceuticals, Inc., priority 2007, published 2014).

**Q.** Which melting point does the source give for CC(C)CC(C(=O)O)c1ccc(-c2ccc(C(F)(F)F)cc2)c(OCC2CC2)c1 (stereo not shown) [Example 142, 2-(2-cyclopropylmethoxy-4′-trifluoromethyl-biphenyl-4-yl)-4-methyl-pentanoic acid] here?
**A.** Its melting point is 142 to 143 °C.
